In US10189837B2, “Crystalline (8S,9R)-5-fluoro-8-(4-fluorophenyl)-9-(1-methyl-1H-1,2,4-triazol-5-yl)-8,9-dihydro-2H-pyrido[4,3,2-de]phthalazin-3(7H)-one tosylate salt” (Medivation Technologies, LLC, priority 2010, dated 2019):
One block for each compound: values may come before it.

How the values were obtained:
Format in all cases: physicochemical
[1] = Dynamic vapor sorption (DVS) isotherm
Description: 1 model from Surface Measurement Systems Ltd. (Alperton, Middlesex, UK). A moisture adsorption desorption isotherm was performed as outlined below. The standard isotherm run is a cycle starting at RH 0% to RH 95% at 5% intervals, followed by drying to RH 0% in 5% RH intervals.

[2] = Thermogravimetric analysis (TGA); conditions: for Weight Change: ramp 10.00 °C/min to 300.00 °C; for % Change in weight: ramp 10.00 °C/min to 400.00 °C
Description: Unless otherwise noted, TGA thermograms were acquired using a TA Instruments Q500 Thermogravimetric Analyzer (New Castle, Del., USA). Samples were weighed out into the pan. Except as noted below, the temperature was ramped from 25.00° C. to 400.00° C. at 10.00° C./minute.
A TGA thermogram for tosylate salt prepared using the steps described in Variation 2 was acquired using a Mettler Toledo Thermogravimetric Analyzer/Differential Scanning Calorimeter 1. The temperature was ramped from 25° C. to 400° C. at 10° C./minute.

[3] = Thermogravimetric analysis (TGA); conditions: ramp 10.00 °C/min to 300.00 °C
[4] = TGA, start about 25 °C, stop 120 °C, tosylate salt
[5] = TGA, start about 25 °C, stop 250 °C, tosylate salt

hygroscopicity (DVS) ([1]; 25 °C, humidity 0% to 95%): not hygroscopic | weight gain (DVS) ([1]; 25 °C, humidity increased from 0% to 95%): less than 1% | Change in Mass (%) Desorption ([1]; Target % P/Po 0.0): −0.0015% | Change in Mass (%) Desorption ([1]; Target % P/Po 5.0): 0.0203% | Change in Mass (%) Desorption ([1]; Target % P/Po 10.0): 0.0326% | Change in Mass (%) Desorption ([1]; Target % P/Po 15.0): 0.0421% | Change in Mass (%) Desorption ([1]; Target % P/Po 20.0): 0.0513% | Change in Mass (%) Desorption ([1]; Target % P/Po 25.0): 0.0649% | Change in Mass (%) Desorption ([1]; Target % P/Po 30.0): 0.0791% | Change in Mass (%) Desorption ([1]; Target % P/Po 35.0): 0.0947% | Change in Mass (%) Desorption ([1]; Target % P/Po 40.0): 0.1084% | Change in Mass (%) Desorption ([1]; Target % P/Po 45.0): 0.1266% | Change in Mass (%) Desorption ([1]; Target % P/Po 50.0): 0.1456% | Change in Mass (%) Desorption ([1]; Target % P/Po 55.0): 0.1668% | Change in Mass (%) Desorption ([1]; Target % P/Po 60.0): 0.1895% | Change in Mass (%) Desorption ([1]; Target % P/Po 65.0): 0.2192% | Change in Mass (%) Desorption ([1]; Target % P/Po 70.0): 0.2535% | Change in Mass (%) Desorption ([1]; Target % P/Po 75.0): 0.2919% | Change in Mass (%) Desorption ([1]; Target % P/Po 80.0): 0.3402% | Change in Mass (%) Desorption ([1]; Target % P/Po 85.0): 0.4113% | Change in Mass (%) Desorption ([1]; Target % P/Po 90.0): 0.5230% | Change in Mass (%) Desorption ([1]; Target % P/Po 95.0): 0.7473% | stability to heat (TGA trace) ([2]; 25 °C to 400 °C at 10 °C/minute, prior to the onset of decomposition at the melting point): stable to heat
Structure (SMILES): Cc1ccc(S(=O)(=O)O)cc1.Cn1ncnc1[C@H]1c2n[nH]c(=O)c3cc(F)cc(c23)N[C@@H]1c1ccc(F)cc1 [(8S,9R)-5-fluoro-8-(4-fluorophenyl)-9-(1-methyl-1H-1,2,4-triazol-5-yl)-8,9-dihydro-2H-pyrido[4,3,2-de]phthalazin-3(7H)-one mono-tosylate salt]

% Change in weight ([2]; TGA, start 25.13 °C, stop 340.46 °C): 43.54% | % Change in weight [2, 4]: 0.1231% | % Change in weight [2, 5]: 0.2894%
Structure (SMILES): Cc1ccc(S(=O)(=O)O)cc1.Cn1ncnc1[C@H]1c2n[nH]c(=O)c3cc(F)cc(c23)N[C@@H]1c1ccc(F)cc1 [compound 5, (8S,9R)-5-fluoro-8-(4-fluorophenyl)-9-(1-methyl-1H-1,2,4-triazol-5-yl)-8,9-dihydro-2H-pyrido[4,3,2-de]phthalazin-3(7H)-one tosylate salt]

% Change in weight ([2]; TGA, start 25.2 °C, stop 338.56 °C): 24.56% | % Change in weight [2, 4]: 0.0388% | % Change in weight [2, 5]: 0.5425%
Structure (SMILES): Cc1ccc(S(=O)(=O)O)cc1.Cn1ncnc1[C@H]1c2n[nH]c(=O)c3cc(F)cc(c23)N[C@@H]1c1ccc(F)cc1 [compound 6, (8S,9R)-5-fluoro-8-(4-fluorophenyl)-9-(1-methyl-1H-1,2,4-triazol-5-yl)-8,9-dihydro-2H-pyrido[4,3,2-de]phthalazin-3(7H)-one tosylate salt]

% Change in weight ([2]; TGA, start 25.5 °C, stop 334 °C): 26.55% | % Change in weight [2, 4]: 0.2109% | % Change in weight [2, 5]: 2.552%
Structure (SMILES): Cc1ccc(S(=O)(=O)O)cc1.Cn1ncnc1[C@H]1c2n[nH]c(=O)c3cc(F)cc(c23)N[C@@H]1c1ccc(F)cc1 [compound 7, (8S,9R)-5-fluoro-8-(4-fluorophenyl)-9-(1-methyl-1H-1,2,4-triazol-5-yl)-8,9-dihydro-2H-pyrido[4,3,2-de]phthalazin-3(7H)-one tosylate salt]

weight gain (DVA) ([1]; from 0%-95% RH): 0.1574% | % Change in weight ([2]; TGA, start 24.9 °C, stop 274.33 °C): 2.071% | % Change in weight ([2]; TGA, start 24.9 °C, stop 320 °C): 19.97% | % Change in weight ([2]; TGA, start 24.9 °C, stop 335 °C): 34.56% | % Change in weight ([2]; TGA, start 24.9 °C, stop 363.03 °C): 50.39% | % Change in weight ([2]; TGA, start 24.9 °C, stop 394.92 °C): 54.39% | % Change in weight [2, 4]: 0.06696%
Structure (SMILES): Cc1ccc(S(=O)(=O)O)cc1.Cn1ncnc1[C@H]1c2n[nH]c(=O)c3cc(F)cc(c23)N[C@@H]1c1ccc(F)cc1 [compound 8, (8S,9R)-5-fluoro-8-(4-fluorophenyl)-9-(1-methyl-1H-1,2,4-triazol-5-yl)-8,9-dihydro-2H-pyrido[4,3,2-de]phthalazin-3(7H)-one tosylate salt]

weight loss ([2]; TGA at 223.8 °C): 17.47% | weight loss ([2]; TGA, ambient to 120 °C): 0.9388%
Structure (SMILES): Cn1ncnc1[C@H]1c2n[nH]c(=O)c3cc(F)cc(c23)N[C@@H]1c1ccc(F)cc1 [compound 24, (8S,9R)-5-fluoro-8-(4-fluorophenyl)-9-(1-methyl-1H-1,2,4-triazol-5-yl)-8,9-dihydro-2H-pyrido[4,3,2-de]phthalazin-3(7H)-one]

Further lines, the compound ahead of its results:

Structure (SMILES): Cn1ncnc1[C@H]1c2n[nH]c(=O)c3cc(F)cc(c23)N[C@@H]1c1ccc(F)cc1 [compound 1, (8S,9R)-5-fluoro-8-(4-fluorophenyl)-9-(1-methyl-1H-1,2,4-triazol-5-yl)-8,9-dihydro-2H-pyrido[4,3,2-de]phthalazin-3(7H)-one]
Weight Change ([3]; TGA at 120 °C): 1.45% | Weight Change ([3]; TGA at 238 °C): 9.214% | Weight Change ([3]; TGA at […]): 4.068% | Weight Change ([2]; TGA at 225 °C): 9.125% | Weight Change ([2]; TGA at 252 °C): 9.265%

Structure (SMILES): Cn1ncnc1[C@H]1c2n[nH]c(=O)c3cc(F)cc(c23)N[C@@H]1c1ccc(F)cc1 [compound 3, (8S,9R)-5-fluoro-8-(4-fluorophenyl)-9-(1-methyl-1H-1,2,4-triazol-5-yl)-8,9-dihydro-2H-pyrido[4,3,2-de]phthalazin-3(7H)-one]
Weight Change ([3]; TGA at 120 °C): 2.33% | Weight Change ([3]; TGA at 178 °C): 2.829% | Weight Change ([2]; TGA at 152 °C): 2.584% | Weight Change ([2]; TGA at 205 °C): 3.42% | Weight Change ([2]; TGA at 250 °C): 5.193%

Structure (SMILES): Cn1ncnc1[C@H]1c2n[nH]c(=O)c3cc(F)cc(c23)N[C@@H]1c1ccc(F)cc1 [compound 11, (8S,9R)-5-fluoro-8-(4-fluorophenyl)-9-(1-methyl-1H-1,2,4-triazol-5-yl)-8,9-dihydro-2H-pyrido[4,3,2-de]phthalazin-3(7H)-one]
weight loss ([2]; TGA at 134.8 °C): 5.72%

Structure (SMILES): Cn1ncnc1[C@H]1c2n[nH]c(=O)c3cc(F)cc(c23)N[C@@H]1c1ccc(F)cc1 [compound 12, (8S,9R)-5-fluoro-8-(4-fluorophenyl)-9-(1-methyl-1H-1,2,4-triazol-5-yl)-8,9-dihydro-2H-pyrido[4,3,2-de]phthalazin-3(7H)-one]
weight loss ([2]; TGA at 139.06 °C): 7.034%

Structure (SMILES): Cn1ncnc1[C@H]1c2n[nH]c(=O)c3cc(F)cc(c23)N[C@@H]1c1ccc(F)cc1 [compound 19, (8S,9R)-5-fluoro-8-(4-fluorophenyl)-9-(1-methyl-1H-1,2,4-triazol-5-yl)-8,9-dihydro-2H-pyrido[4,3,2-de]phthalazin-3(7H)-one]
Weight Change ([3]; TGA at 120 °C): 1.054% | Weight Change ([3]; TGA at 174 °C): 5.977% | Weight Change ([3]; TGA at 185 °C): 7.82% | Weight Change ([3]; TGA at 238 °C): 8.874% | Weight Change ([2]; TGA at 161 °C): 4.256%

Structure (SMILES): Cn1ncnc1[C@H]1c2n[nH]c(=O)c3cc(F)cc(c23)N[C@@H]1c1ccc(F)cc1 [compound 20, (8S,9R)-5-fluoro-8-(4-fluorophenyl)-9-(1-methyl-1H-1,2,4-triazol-5-yl)-8,9-dihydro-2H-pyrido[4,3,2-de]phthalazin-3(7H)-one]
Weight Change ([3]; TGA at 120 °C): 1.926% | Weight Change ([3]; TGA at 189.67 °C): 3.234% | Weight Change ([3]; TGA at 256.48 °C): 3.448% | Weight Change ([2]; TGA at 174.03 °C): 3.167%

Structure (SMILES): Cn1ncnc1[C@H]1c2n[nH]c(=O)c3cc(F)cc(c23)N[C@@H]1c1ccc(F)cc1 [compound 21, (8S,9R)-5-fluoro-8-(4-fluorophenyl)-9-(1-methyl-1H-1,2,4-triazol-5-yl)-8,9-dihydro-2H-pyrido[4,3,2-de]phthalazin-3(7H)-one]
weight loss ([2]; TGA at 142.46 °C): 3.7% | weight loss ([2]; TGA at 256.48 °C): 4.259%
